# Columns and labels:
# recombinant human IL-13 = recombinant human IL-13 (Homo sapiens, UniProt P35225); assay: TF-1 cell proliferation bioassay with rhIL-13; assay type: cell-based; settings: rhIL-13 4 ng/ml; inhibitor 10 μg/ml and 2.5 μg/ml; 48 hours; FIG. 1
# Description: The various simplified sulphated glycoconjugates inhibited the proliferation of an IL-13 responsive cell line to differing degrees. This occurs at very low doses and is believed not to be due to a toxic effect of the glycoconjugates because other, similarly sulfated polysaccharides (e.g. sucrose octasulfate), at the same concentrations of IL-13 and polysaccharide have no effect. These experiments utilize the TF-1 cells that are grown in 2 ng/ml recombinant human (rh) GM-CSF. TF-1 cells were originally established from a bone marrow sample from a person with severe pancytopenia. These cells are dependent on IL-3 or GM-CSF for long term growth and are responsive to a variety of human cytokines including IL-13.
# (§1) Briefly, proliferation assays were carried out in 96-well microplates suitable for such assays. […] When the effect of the different simplified sulfated glycoconjugates was measured, the wells also contained various concentrations of these molecules (10 μg/ml and 2.5 μg/ml) and the rhIL-13 concentration was held constant at 4 ng/ml. The cells proliferated for 48 hours, after which the number of cells present was quantified by staining with 20 μL per well of the CellTiter 96 Aqueous One reagent was incubated with TF1 cells for the last 3.5 to 4 hours of culture and then absorbance was read at 490 nm on an Enspire Multimode plate reader (PerkinElmer).
# recombinant human IL-4 = molecular target: T1, recombinant human IL-4 (Homo sapiens, UniProt P05112); assay: TF-1 cell proliferation bioassay with rhIL-4; assay type: cell-based; settings: rhIL-4 4 ng/ml; inhibitor 10 μg/ml and 2.5 μg/ml; 48 hours; FIG. 3
# T1 sequence (P05112 25-153): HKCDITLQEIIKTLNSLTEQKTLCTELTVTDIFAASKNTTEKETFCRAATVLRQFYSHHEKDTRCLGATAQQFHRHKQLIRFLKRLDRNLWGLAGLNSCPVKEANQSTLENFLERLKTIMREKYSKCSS
# Description: The various simplified sulphated glyconjugates inhibited the proliferation of an IL-4 responsive cell line to differing degrees. This occurs at very low doses and is not due to a toxic effect of the glycoconjugate because other, similarly sulfated polysaccharides (sucrose octasulfate), at the same concentrations of IL-4 and polysaccharide have no effect. These experiments utilize the TF-1 cells that are grown in 2 ng/ml recombinant human (rh) GM-CSF. TF-1 cells were originally established from a bone marrow sample from a person with severe pancytopenia. These cells are dependent on IL-3 or GM-CSF for long term growth and are responsive to a variety of human cytokines including human IL-4.
# as §1, with “rhIL-4” for “rhIL-13”
# recombinant human IL-13, sequence (P35225 25-146): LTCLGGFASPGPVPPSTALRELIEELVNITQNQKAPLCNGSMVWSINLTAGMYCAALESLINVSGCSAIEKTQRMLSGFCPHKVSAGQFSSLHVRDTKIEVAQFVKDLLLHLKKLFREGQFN
smiles,measurement,setting,value
O=S(=O)(O)OC[C@H]1O[C@@](COS(=O)(=O)O)(O[C@H]2O[C@H](COS(=O)(=O)O)[C@@H](OS(=O)(=O)O)[C@H](OS(=O)(=O)O)[C@H]2OS(=O)(=O)O)[C@@H](OS(=O)(=O)O)[C@@H]1OS(=O)(=O)O [sucrose octasulfate],inhibition of IL-13 stimulated TF-1 cell proliferation,recombinant human IL-13,no effect
same,inhibition of IL-4 stimulated TF-1 cell proliferation,recombinant human IL-4,no effect
